How the values were obtained:
Assay in all cases: CTG-3D luminescence at 96 h relative to day-0 seeding control (ratio to day 0); higher = more growth / less cytotoxicity; PDxO 3D drug screen (set 2), 96 h, CTG-3D normalised to day-0 seeding control.
HCI-003.E2 = tested on: HCI-003.E2 (organoid from an ER-positive breast cancer xenograft)
HCI-010 = tested on: HCI-010 (organoid from a breast cancer xenograft)
HCI-017.E2 = tested on: HCI-017.E2 (organoid from an ER-positive breast cancer xenograft)
HCI-019 = tested on: HCI-019 (organoid from a triple-negative breast cancer xenograft)
HCI-023 = tested on: HCI-023 (organoid from a triple-negative breast cancer xenograft)
HCI-025 = tested on: HCI-025 (organoid from a breast cancer xenograft)

CC(=O)O[C@@]12CO[C@@H]1C[C@H](O)[C@@]1(C)C(=O)[C@H](O)C3=C(C)[C@@H](OC(=O)[C@H](O)[C@@H](NC(=O)OC(C)(C)C)c4ccccc4)C[C@@](O)([C@@H](OC(=O)c4ccccc4)[C@H]21)C3(C)C [docetaxel]
CTG-3D luminescence at 96 h
Conditions | 12.5 pM | 0.00025 µM | 0.005 µM | 0.1 µM | 1 µM | 10 µM | 100 µM | 625 fM
HCI-003.E2 | 0.748 | 0.702 | 0.684 | 0.627 | 0.599 | 0.261 | 0.0093 | 0.993
HCI-017.E2 | 1.34 | 1.47 | 1.2 | 1.36 | 1.14 | 0.78 | 0.13 | 1.38

CTG-3D luminescence at 96 h
Conditions | 12.5 pM | 0.00025 µM | 0.005 µM | 0.1 µM | 1 µM | 10 µM | 100 µM | 625 fM
HCI-010, days in culture: 79 | 1.26 | 1.41 | 1.14 | 0.967 | 0.815 | 0.987 | 0.000117 | 1.74
HCI-010, days in culture: 86 | 2.16 | 2.35 | 2.01 | 0.907 | 0.734 | 0.847 | 0.00279 | 2.24
HCI-010, days in culture: 102 | 1.2 | 0.987 | 0.747 | 0.491 | 0.519 | 0.375 | 0.00091 | 1.07
HCI-010, days in culture: 164 | 1.68 | 1.45 | 1.1 | 0.611 | 0.719 | 0.646 | 0.00438 | 1.43
HCI-017.E2, days in culture: 85 | 2.47 | 1.92 | 0.986 | 0.975 | 0.797 | 0.598 | 0.154 | 2.7
HCI-019, days in culture: 173 | 1.24 | 0.84 | 0.655 | 1.38 | 0.99 | 0.699 | 0.368 | 0.768
HCI-019, days in culture: 194 | 1.66 | 2.03 | 0.858 | 0.59 | 0.552 | 0.764 | 0.27 | 3.06
HCI-019, days in culture: 215 | 1.52 | 0.972 | 0.281 | 0.399 | 0.342 | 0.484 | 0.0546 | 1.59
HCI-023, days in culture: 223 | 0.666 | 0.731 | 0.679 | 0.597 | 0.578 | 0.746 | 0.0587 | 0.745
HCI-023, days in culture: 238 | 0.654 | 0.598 | 0.69 | 0.7 | 0.901 | 0.651 | 0.265 | 0.619
HCI-023, days in culture: 252 | 1.03 | 0.858 | 0.757 | 1.04 | 0.812 | 1.27 | 0.603 | 1.14
HCI-025, days in culture: 175 | 0.586 | 0.61 | 0.547 | 0.494 | 0.674 | 0.771 | 0.387 | 0.704
HCI-025, days in culture: 189 | 0.971 | 0.89 | 0.694 | 1.01 | 0.76 | 0.759 | 0.286 | 1.74
HCI-025, days in culture: 212 | 2.49 | 1.38 | 0.974 | 0.822 | 0.332 | 0.385 | 0.187 | 0.772
HCI-025, days in culture: 224 | 2.29 | 2.24 | 0.853 | 0.501 | 0.639 | 0.685 | 0.065 | 1.64

COc1cccc2c1C(=O)c1c(O)c3c(c(O)c1C2=O)C[C@@](O)(C(=O)CO)C[C@@H]3O[C@H]1C[C@H](N)[C@@H](O)[C@H](C)O1 [epirubicin]
CTG-3D luminescence at 96 h
Conditions | 12.5 pM | 0.00025 µM | 0.005 µM | 0.1 µM | 1 µM | 10 µM | 100 µM | 625 fM
HCI-003.E2 | 2.55 | 2.48 | 2.34 | 2.23 | 0.712 | 0.0173 | 0.000274 | 3.06
HCI-017.E2 | 2.04 | 2.99 | 2.22 | 2.13 | 0.562 | 1.07 | 0.00216 | 2.33

CTG-3D luminescence at 96 h
Conditions | 12.5 pM | 0.00025 µM | 0.005 µM | 0.1 µM | 1 µM | 10 µM | 100 µM | 625 fM
HCI-010, days in culture: 79 | 1.82 | 1.96 | 2.1 | 0.453 | 0.114 | 0.0313 | -0.00605 | 2.12
HCI-010, days in culture: 86 | 1.93 | 2.45 | 2.56 | 0.972 | 0.179 | 0.0423 | -0.00278 | 2.25
HCI-010, days in culture: 102 | 1.1 | 1.22 | 1.01 | 0.19 | 0.064 | 0.0201 | -0.000814 | 0.986
HCI-010, days in culture: 164 | 1.68 | 1.75 | 1.67 | 0.67 | 0.214 | 0.0976 | -0.00123 | 1.45
HCI-017.E2, days in culture: 85 | 2.09 | 2.02 | 1.7 | 2.1 | 0.743 | 1.02 | 0.0107 | 1.92
HCI-019, days in culture: 173 | 2.56 | 0.82 | 0.796 | 0.682 | 0.176 | 0.0215 | -0.00415 | 2.04
HCI-019, days in culture: 194 | 1.08 | 1.73 | 0.897 | 0.514 | 0.126 | 0.00997 | -0.00363 | 2.03
HCI-019, days in culture: 215 | 1.08 | 1.32 | 1.32 | 0.384 | 0.205 | 0.0145 | -0.000778 | 1.97
HCI-023, days in culture: 223 | 1.88 | 1.76 | 1.22 | 1.3 | 0.154 | 0.0393 | -0.00401 | 2.21
HCI-023, days in culture: 238 | 1.44 | 1.08 | 0.842 | 0.9 | 0.391 | 0.0393 | -0.00422 | 1.61
HCI-023, days in culture: 252 | 2.29 | 2.32 | 1.59 | 1.68 | 0.516 | 0.0524 | -0.00328 | 1.99
HCI-025, days in culture: 175 | 1.67 | 1.16 | 0.961 | 0.846 | 0.14 | 0.0198 | -0.00458 | 1.31
HCI-025, days in culture: 189 | 2.65 | 2.38 | 1.58 | 1.14 | 0.108 | 0.00904 | -0.0017 | 2.54
HCI-025, days in culture: 212 | 1.54 | 2.81 | 3.5 | 1.27 | 0.125 | 0.0162 | -0.000834 | 1.07
HCI-025, days in culture: 224 | 1.88 | 2.11 | 1.45 | 0.576 | 0.0783 | 0.0108 | -0.00319 | 1.79

Source: the supplement of paper PMC8882468
